Assay results reported in the NIST ThermoML archive (doi:10.1016/j.jct.2018.02.022).
± gives the expanded uncertainty stated by the source.

Assays:
[1] = 92.3 kPa, Liquid; for viscosity: Concentric cylinders viscometry; for speed of sound: Frequency=3 MHz, Single path-length method; for mass density: Vibrating tube method
[2] = xn = mol fraction of the nth substance listed; settings: 92.3 kPa, Liquid, x2 = 0; for viscosity: Concentric cylinders viscometry; for mass density: Vibrating tube method

SMILES	viscosity ([1]; 293.15 K) [mPa·s]	speed of sound ([1]; 293.15 K) [m/s]	mass density ([1]; 293.15 K) [kg/m3]	viscosity ([1]; 298.15 K) [mPa·s]	speed of sound ([1]; 298.15 K) [m/s]	viscosity ([1]; 303.15 K) [mPa·s]	speed of sound ([1]; 303.15 K) [m/s]	mass density ([1]; 303.15 K) [kg/m3]	viscosity ([1]; 308.15 K) [mPa·s]	speed of sound ([1]; 308.15 K) [m/s]	mass density ([1]; 298.15 K) [kg/m3]	mass density ([1]; 308.15 K) [kg/m3]	viscosity ([2]; 293.15 K) [mPa·s]	mass density ([2]; 293.15 K) [kg/m3]	viscosity ([2]; 298.15 K) [mPa·s]	mass density ([2]; 298.15 K) [kg/m3]	viscosity ([2]; 303.15 K) [mPa·s]	mass density ([2]; 303.15 K) [kg/m3]	viscosity ([2]; 308.15 K) [mPa·s]	mass density ([2]; 308.15 K) [kg/m3]
OCCO [1,2-ethanediol]	20.61 ± 2.9	1666.5 ± 1.8	1113.72 ± 3	16.22 ± 2.3	1654.7 ± 1.8	13.87 ± 1.9	1642.9 ± 1.8	1106.71 ± 3	11.48 ± 1.6	1631.2 ± 1.8										
OCCOCCO [diethylene glycol]	35.89 ± 5	1591 ± 2	1116.73 ± 3	27.67 ± 3.9	1579.1 ± 2	22.48 ± 3.1	1567.2 ± 2	1109.6 ± 3	18.27 ± 2.6	1555.3 ± 2	1113.17 ± 3	1106.01 ± 3								
CCO [ethanol]	1.202 ± 0.17	1160.7 ± 1.8	789.547 ± 3	1.091 ± 0.15	1143.5 ± 1.8	0.992 ± 0.14	1126.4 ± 1.8	780.941 ± 3	0.9039 ± 0.13	1109.6 ± 1.8	785.26 ± 3	776.592 ± 3								
OCC(O)CO [glycerol]	1408.4 ± 210	1925.5 ± 1.8	1260.73 ± 3	900.44 ± 130	1911.9 ± 1.8	593.09 ± 85	1899.6 ± 1.8	1254.48 ± 3	401.76 ± 57	1888.1 ± 1.8	1257.65 ± 3	1251.38 ± 3								
OCCOCCOCCO [triethylene glycol]	48.06 ± 6.7	1626.8 ± 2	1123.48 ± 3	36.88 ± 5.2	1611.6 ± 2	29.59 ± 4.1	1596.6 ± 2	1115.7 ± 3	23.72 ± 3.3	1581.7 ± 2	1119.59 ± 3	1111.81 ± 3								
O [water]	1.067 ± 0.15		998.429 ± 3	0.8969 ± 0.13		0.8385 ± 0.12		995.867 ± 3	0.7589 ± 0.11		997.267 ± 3	994.252 ± 3								
O [water] + CCO													1.067 ± 0.15	998.429 ± 3	0.8969 ± 0.13	997.267 ± 3	0.8385 ± 0.12	995.867 ± 3	0.7589 ± 0.11	994.252 ± 3
O [water] + OCC(O)CO													1.067 ± 0.15	998.429 ± 3	0.8969 ± 0.13	997.267 ± 3	0.8385 ± 0.12	995.867 ± 3	0.7589 ± 0.11	994.252 ± 3
O [water] + OCCO													1.067 ± 0.15	998.429 ± 3	0.8969 ± 0.13	997.267 ± 3	0.8385 ± 0.12	995.867 ± 3	0.7589 ± 0.11	994.252 ± 3
O [water] + OCCOCCO													1.067 ± 0.15	998.429 ± 3	0.8969 ± 0.13	997.267 ± 3	0.8385 ± 0.12	995.867 ± 3	0.7589 ± 0.11	994.252 ± 3
O [water] + OCCOCCOCCO													1.067 ± 0.15	998.429 ± 3	0.8969 ± 0.13	997.267 ± 3	0.8385 ± 0.12	995.867 ± 3	0.7589 ± 0.11	994.252 ± 3
